Laboratory results: US20140037742A1, “ALGINATE MICROPARTICLES AND METHODS OF USING THE SAME” (priority 2012, published 2014)

Tested on: Staphylococcus epidermidis
Test: Antimicrobial testing, zones of inhibition around saturated discs on agar plates
Format: cell-based
Settings: positive control disc, all test plates
Method: Each disc was saturated with different test materials and zones of inhibition were measured after plates were incubated for 24 and 48 hours.
The synthesized microparticles were also tested for their antimicrobial activity against Staphylococcus epidermidis, a substitute for the pathogenic Staphylococcus aureus.

[H]/N=C(/N)N[C@H]1[C@H](O)[C@@H](O)[C@H](O[C@@H]2O[C@@H](C)[C@](O)(C=O)[C@H]2O[C@@H]2O[C@@H](CO)[C@H](O)[C@@H](O)[C@@H]2NC)[C@@H](N/C(N)=N\[H])[C@@H]1O [Streptomycin]
zone of inhibition: large, consistent zone of inhibition
